Experimental findings from US20260083704A1, “LXR MODULATORS WITH BICYCLIC CORE MOIETY FOR TREATING DYSLIPIDEMIAS” (OrsoBio, Inc., priority 2022, published 2026) are described below.

In test [1] the target is T1, GST-LXRβ ligand-binding domain (Homo sapiens, UniProt P55055).
T1 construct: amino acids 156-461; NP009052; made in house; host or cells: E. coli
T1 sequence (P55055 156-460 limits assumed): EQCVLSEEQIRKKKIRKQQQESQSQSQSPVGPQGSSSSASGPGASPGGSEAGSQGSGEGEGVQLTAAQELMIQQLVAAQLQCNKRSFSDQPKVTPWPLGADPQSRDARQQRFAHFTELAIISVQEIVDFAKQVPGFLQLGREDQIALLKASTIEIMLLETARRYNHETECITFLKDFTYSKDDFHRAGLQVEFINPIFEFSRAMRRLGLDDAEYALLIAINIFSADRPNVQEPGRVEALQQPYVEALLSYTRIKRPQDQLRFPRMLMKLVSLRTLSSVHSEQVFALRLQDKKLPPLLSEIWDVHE
Briefly: TR-FRETβ activity assay (NCoA3 coactivator peptide recruitment). The test is classed as biochemical. The conditions noted are these: 1 μM 24(S)-25-epoxycholesterol prestimulation. Summed up:
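E. coli-expressed GST-LXRβ LBD (aa 156-461, 76 nM) with biotinylated NCoA3 peptide (400 nM) in Tris/HCl pH 6.8 containing 1 μM 24(S)-25-epoxycholesterol agonist. Compounds tested at 50 μM down to 0.002 μM in triplicate. TR-FRET (Tb cryptate/XL665, ex 340, em 615/665 nm) read after 1 h at 4° C.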

The next test has as its target T2, LXRβ (Homo sapiens, UniProt P55055).
T2 sequence (P55055 1-460): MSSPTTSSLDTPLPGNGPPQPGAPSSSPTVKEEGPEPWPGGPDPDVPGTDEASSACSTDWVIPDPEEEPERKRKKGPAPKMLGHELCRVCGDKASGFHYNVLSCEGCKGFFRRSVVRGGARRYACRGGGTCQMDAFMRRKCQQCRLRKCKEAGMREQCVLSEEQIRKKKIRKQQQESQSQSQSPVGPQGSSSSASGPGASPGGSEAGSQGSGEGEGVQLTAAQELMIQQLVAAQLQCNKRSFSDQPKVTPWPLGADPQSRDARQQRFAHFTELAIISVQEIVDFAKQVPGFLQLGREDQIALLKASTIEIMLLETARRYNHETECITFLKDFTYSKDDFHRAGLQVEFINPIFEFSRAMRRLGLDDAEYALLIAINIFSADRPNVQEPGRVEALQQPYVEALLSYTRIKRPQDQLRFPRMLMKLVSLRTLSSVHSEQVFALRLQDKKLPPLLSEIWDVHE
The test is described as follows: LXR Gal4 reporter transient transfection assay (mammalian two-hybrid, HEK293), LXRβ. It counts as cell-based. Also on record: LXRβ (amino acids 156-461); expressed in transfected cells; host or cells: HEK293. The settings on record: full length (FL) LXRβ, HEK293; read-out: FL-M2H Gal4β. Summed up: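 HEK293 cells transiently co-transfected with full-length or LBD LXRα/LXRβ fused to NFkB activation domain, GAL4-DBD-fused SRC1 or NCoR cofactor domain, GAL4-responsive firefly luciferase reporter and Renilla control. Compound added 4 h post-transfection (≤0.2% DMSO), incubated 16 h; firefly and Renilla luminescence read sequentially.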

Molecules are shown by their SMILES.

`Cc1ccc(S(=O)(=O)n2c(-c3cccc(-c4cc(C(=O)O)nn4C(C)C)c3)c(-c3ccsc3C#N)c3cc(F)ccc32)cc1` [12/8]: the figures for the EC50 (in test [1]; on LXRβ) were 1000 to 10000 nM and 100 to 1000 nM, respectively.
The matching figures for `CC1(C)CCN(S(=O)(=O)n2c(-c3cccc(-c4ccc(C(=O)O)cc4)c3)c(-c3ccsc3C#N)c3ccccc32)CC1` [3/66]: 1000 to 10000 nM and 100 to 1000 nM.
For `Cc1ccc(S(=O)(=O)n2c(-c3cccc(C4CC4C(=O)O)c3)c(-c3ccsc3C#N)c3cccnc32)cc1` (stereo not shown) [4/2], in that order: 1000 to 10000 nM and 100 to 1000 nM.
With `N#Cc1cccc(F)c1-c1c(-c2cccc(-c3ccc(C(=O)O)cc3Cl)c2)n(S(=O)(=O)c2ccc(C(F)F)cc2)c2ccc(F)cc12` [11/34], the EC50 (in test [1]; on LXRβ) was less than 100 nM each time.
On to `O=C(NCCS(=O)(=O)O)C1CC1c1cccc(-c2c(-c3c(Cl)cccc3Cl)c3cc(F)ccc3n2S(=O)(=O)c2ccc(C(F)F)cc2)c1` (stereo not shown) [10/4], for which the EC50 (in test [1]; on LXRβ) was less than 100 nM in each case.
With `Cc1ccc(S(=O)(=O)n2c(-c3cccc(-c4ccc(C(C(=O)O)N(C)C)cc4Cl)c3)c(-c3ccsc3C#N)c3cc(F)ccc32)cc1` (stereo not shown) [Compound 3], the EC50 (in test [1]; at LXRβ) was less than 100 nM in each case.
As for `Cc1ccc(S(=O)(=O)n2c(-c3cccc(N4CC(C(=O)O)C4)c3)c(-c3ccccc3C3COC3)c3cc(F)ccc32)cc1` [3/31], the EC50 (in test [1]; at LXRβ) was 100 to 1000 nM throughout.
Turning to `Cc1ccc(S(=O)(=O)n2c(-c3cccc(-c4ccc(C(=O)O)nc4)c3)c(-c3ccsc3C#N)c3cc(F)ccc32)cc1` [3/47], the figures for the EC50 (in test [1]; on LXRβ) were 100 to 1000 nM and less than 100 nM, respectively.
The matching figures for `O=C(O)c1ccc(-c2cccc(-c3c(-c4ncccc4N4CC(O)C4)c4cc(F)ccc4n3S(=O)(=O)c3ccc(C(F)F)cc3)c2)c(Cl)c1` [5/10]: 1000 to 10000 nM and 100 to 1000 nM.
The matching figures for `Cc1ccc(S(=O)(=O)n2c(-c3cccc(-c4ccc(C(=O)O)cc4Cl)c3)c(-c3cc(C)ccc3C#N)c3cc(F)ccc32)cc1` [11/5]: less than 100 nM and less than 100 nM.
On to `O=C(O)C1CC1c1cccc(-c2c(-c3c(Cl)cccc3Cl)c3cc(F)ccc3n2S(=O)(=O)c2ccc(C(F)F)cc2)c1` (stereo not shown) [11/69], for which the EC50 (in test [1]; at LXRβ) was less than 100 nM each time.
In the case of `N#Cc1cccc(C#N)c1-c1c(-c2cccc(Br)c2)n(S(=O)(=O)c2ccc(C(F)F)cc2)c2ccc(F)cc12` [1/139], the EC50 is 100 to 1000 nM in test [1] and less than 100 nM on LXRβ.
On to `N#Cc1ccccc1-c1c(-c2cccc(-c3ccc(C(=O)O)c(O)c3Cl)c2)n(S(=O)(=O)c2ccc(C(F)F)cc2)c2ccc(F)cc12` [11/32], for which the EC50 (in test [1]; at LXRβ) was less than 100 nM throughout.
For `Cc1ccc(S(=O)(=O)n2c(-c3cccc(N4CC(C(=O)O)C4)c3)c(-c3ccsc3C=O)c3cc(F)ccc32)cc1` [3/5], the EC50 (in test [1]; on LXRβ) was 100 to 1000 nM in each case.
Take `O=C(O)c1ccc(-c2cccc(-c3c(-c4ccsc4C(F)(F)F)c4cc(F)ccc4n3S(=O)(=O)c3ccc(C(F)F)cc3)c2)c(Cl)c1` [11/22]: the EC50 (in test [1]; on LXRβ) was less than 100 nM each time.
For `Cc1ccc(S(=O)(=O)n2c(-c3cccc(C4CC4C(=O)O)c3)c(-c3ccsc3C#N)c3ccncc32)cc1` (stereo not shown) [4/1], the EC50 was 1000 to 10000 nM in test [1] and less than 100 nM on LXRβ.
For `N#Cc1cccc(C#N)c1-c1c(-c2cccc(N3CC(C(=O)O)C3)c2)n(S(=O)(=O)c2ccc(C(F)F)cc2)c2ccc(F)cc12` [3/67], in that order: 100 to 1000 nM and 100 to 1000 nM.
Consider `Cc1ccc(S(=O)(=O)n2c(-c3cccc(-c4ccc(C(=O)O)nc4C)c3)c(-c3ccsc3C#N)c3cc(F)ccc32)cc1` [36/1], for which the results for the EC50 (in test [1]; at LXRβ) were 100 to 1000 nM and less than 100 nM, respectively.
The matching figures for `COc1cc(C(=O)O)ccc1-c1cccc(-c2c(-c3ccccc3C#N)c3cc(F)ccc3n2S(=O)(=O)c2ccc(C(F)F)cc2)c1` [11/29]: less than 100 nM and less than 100 nM.
For `Cc1ccc(S(=O)(=O)n2c(-c3cccc(N4[C@@H]5CC[C@H]4C[C@@H](C(=O)O)C5)c3)c(-c3ccsc3C#N)c3cc(F)ccc32)cc1` [3/58], in that order: 1000 to 10000 nM and less than 100 nM.
For `N#Cc1cccc(C#N)c1-c1c(-c2cccc(-c3ccc(C(=O)O)cc3Cl)c2)n(S(=O)(=O)c2ccc(C(F)F)cc2)c2ccccc12` [11/56], in that order: less than 100 nM and less than 100 nM.
For `Cc1ccc(S(=O)(=O)n2c(-c3cccc(N4CC(C(=O)O)C4)c3)c(-c3ccsc3C#N)c3cc(F)ccc32)c(F)c1` [3/14], the EC50 was 1000 to 10000 nM in test [1] and 100 to 1000 nM at LXRβ.
For `CCc1ccc(S(=O)(=O)n2c(-c3cccc(N4CC(C(=O)O)C4)c3)c(-c3ccsc3C#N)c3cc(F)ccc32)cc1` [3/10], in that order: 100 to 1000 nM and less than 100 nM.
The matching figures for `Cc1ccc(S(=O)(=O)n2c(-c3cccc(-c4ccc(C(C)(C)C(=O)O)c(S(C)(=O)=O)c4)c3)c(-c3ccsc3C#N)c3cc(F)ccc32)cc1` [2/18]: 100 to 1000 nM and less than 100 nM.
For `N#Cc1cccc(C#N)c1-c1c(-c2cccc(-c3ccc(C(=O)O)cc3Cl)c2)n(S(=O)(=O)c2ccc(Cl)cc2)c2ccc(F)cc12` [11/55], in that order: less than 100 nM and less than 100 nM.
With `Cc1ccc(S(=O)(=O)n2c(-c3cccc(-c4cc(C(=O)O)nn4C)c3)c(-c3ccsc3C#N)c3cc(F)ccc32)cc1` [12/7], the EC50 (in test [1]; at LXRβ) was 100 to 1000 nM each time.
Consider `Cc1ccc(S(=O)(=O)n2c(-c3cccc(-c4ccc(C(=O)O)cc4Cl)c3)c(-c3ccsc3C#N)c3cc(F)ccc32)cc1F` [11/19], for which the EC50 in test [1] is 100 to 1000 nM; on LXRβ, less than 100 nM.
The matching figures for `N#Cc1sccc1-c1c(-c2cccc(N3CCC(C(=O)O)CC3)c2)n(S(=O)(=O)c2ccc(C(F)F)cc2)c2ccc(F)cc12` [3/60]: 100 to 1000 nM and less than 100 nM.
For `Cc1ccc(S(=O)(=O)n2c(-c3cccc(-c4ccc(C(=O)O)cc4Cl)c3)c(-c3c(C)cccc3C#N)c3cc(F)ccc32)cc1` [11/6], in that order: less than 100 nM and less than 100 nM.
The matching figures for `Cn1cccc(-c2c(-c3cccc(-c4ccc(C(=O)O)cc4Cl)c3)n(S(=O)(=O)c3ccc(C(F)F)cc3)c3ccc(F)cc23)c1=O` [11/47]: 100 to 1000 nM and 100 to 1000 nM.
As to `Cc1ccc(S(=O)(=O)n2c(-c3cccc(-n4ccc(C(=O)O)cc4=O)c3)c(-c3ccsc3C#N)c3cc(F)ccc32)cc1` [5/5], the EC50 (in test [1]; on LXRβ) was 100 to 1000 nM throughout.
On to `N#Cc1sccc1-c1c(-c2cccc(N3CC(C(=O)O)C3)c2)n(S(=O)(=O)c2ccc3c(c2)CCC3)c2ccc(F)cc12` [3/12], for which the EC50 was 100 to 1000 nM in test [1] and less than 100 nM at LXRβ.
The matching figures for `N#Cc1sccc1-c1c(-c2cccc(-c3ccc(C(=O)O)cc3Cl)c2)n(S(=O)(=O)c2ccc(Cl)cc2)c2ccc(F)cc12` [3/57]: 100 to 1000 nM and less than 100 nM.
For `CC1CCN(S(=O)(=O)n2c(-c3cccc(-c4ccc(C(=O)O)cc4Cl)c3)c(-c3ccsc3C#N)c3cc(F)ccc32)CC1` [3/21], in that order: 100 to 1000 nM and less than 100 nM.
In the case of `N#Cc1sccc1-c1c(-c2cccc(C3CC3C(=O)NO)c2)n(S(=O)(=O)c2ccc(Cl)cc2)c2ccccc12` (stereo not shown) [6/1], the EC50 in test [1] is 100 to 1000 nM; at LXRβ it was less than 100 nM.
The matching figures for `Cc1cccc(C)c1-c1c(-c2cccc(-c3ccc(C(=O)O)cc3Cl)c2)n(S(=O)(=O)c2ccc(C(F)F)cc2)c2ccc(F)cc12` [11/14]: less than 100 nM and less than 100 nM.
The matching figures for `Cc1ccc(S(=O)(=O)n2c(-c3cccc(C45CC(C(=O)O)(C4)C5)c3)c(-c3ccsc3C#N)c3ccccc32)cc1` [5/2]: 100 to 1000 nM and 100 to 1000 nM.
The matching figures for `O=C(O)c1ccc(-c2cccc(-c3c(-c4ccccc4C4COC4)c4cc(F)ccc4n3S(=O)(=O)c3ccc(Cl)cc3)c2)c(Cl)c1` [3/56]: less than 100 nM and less than 100 nM.
